Experimental data: patent US20230172206A1 (BASF SE, priority 2020, published 2023)

Legend:
[1] = system: Phakopsora pachyrhizi (F129L); assay: Protective control of soybean rust on soybeans (PHAKPA P6); type: in vivo; conditions: for % PHAKPA (F129L) Disease level P6 at 4 ppm: protective P6, 4 ppm; for % PHAKPA (F129L) Disease level P6 at 16 ppm: protective P6, 16 ppm
[2] = system: Phakopsora pachyrhizi (F129L); assay: Protective control of soybean rust on soybeans (PHAKPA P2); type: in vivo; conditions: for % PHAKPA (F129L) Disease level P2 at 4 ppm: protective P2, 4 ppm; for % PHAKPA (F129L) Disease level P2 at 16 ppm: protective P2, 16 ppm

Row | SMILES | % PHAKPA (F129L) Disease level P6 at 4 ppm ([1]; F129L isolate) | % PHAKPA (F129L) Disease level P6 at 16 ppm ([1]; F129L isolate) | % PHAKPA (F129L) Disease level P2 at 4 ppm ([2]; F129L isolate) | % PHAKPA (F129L) Disease level P2 at 16 ppm ([2]; F129L isolate) | % PHAKPA (F129L) Disease level P6 at 4 ppm ([1]; soybean rust F129L isolate) | % PHAKPA (F129L) Disease level P6 at 16 ppm ([1]; soybean rust F129L isolate) | % PHAKPA (F129L) Disease level P2 at 4 ppm ([2]; soybean rust F129L isolate) | % PHAKPA (F129L) Disease level P2 at 16 ppm ([2]; soybean rust F129L isolate)
1 | CO/N=C(/C(=O)OC)c1cccc(C)c1CO/N=C(\C)c1ccc(Cc2ccccc2)cc1C(F)(F)F [compound 408] | 33% | 13% | 30% | 12% |  |  |  | 
2 | CNC(=O)/C(=N/OC)c1cccc(C)c1CO/N=C(\C)c1ccc(C)c(C(F)(F)F)c1 [compound 230] |  |  |  |  | 73% | 4% | 22% | 1%
3 | CO/N=C(/C(=O)OC)c1cccc(C)c1CO/N=C(\C)c1cccc(C(C)(F)F)c1 [compound 302] |  |  |  |  | 47% | 3% | 47% | 4%
4 | CNC(=O)/C(=N/OC)c1cccc(C)c1CO/N=C(\C)c1ccc(/C(C)=N\OC)cc1C(F)(F)F [compound 420] | 12% | 1% | 8% | 0% |  |  |  | 
5 | CO/N=C(/C(=O)OC)c1cccc(C)c1CO/N=C(\C)c1cc(F)ccc1C(F)(F)F [compound 249] |  |  |  |  | 90% | 43% | 87% | 37%
6 | CNC(=O)/C(=N/OC)c1cccc(C)c1CO/N=C(\C)c1ccc(F)cc1OC(F)(F)F [compound 378] |  |  |  |  | 17% | 1% | 18% | 1%
7 | CNC(=O)/C(=N/OC)c1cccc(C)c1CO/N=C(\C)c1ccc(Cl)c(Cl)c1C(F)(F)F [compound 431] | 40% | 12% | 32% | 7% |  |  |  | 
8 | CO/N=C(/C(=O)OC)c1cccc(C)c1CO/N=C(\C)c1ccc(Cc2ccccc2)cc1OC(F)(F)F [compound 416] | 67% | 25% | 57% | 27% |  |  |  | 
9 | CNC(=O)/C(=N/OC)c1cccc(C)c1CO/N=C(\C)c1ccc(Oc2ccc(Cl)cc2)cc1C(F)(F)F [compound 336] |  |  |  |  | 50% | 17% | 63% | 20%
10 | CNC(=O)/C(=N/OC)c1cccc(C)c1CO/N=C(\C)c1ccc(F)cc1F [compound 267] |  |  |  |  | 10% | 4% | 2% | 0%
11 | CNC(=O)/C(=N/OC)c1cccc(C)c1CO/N=C(\C)c1ccc(C#N)cc1C(F)(F)F [compound 424] | 97% | 50% | 100% | 27% |  |  |  | 
12 | CO/N=C(/C(=O)OC)c1cccc(C)c1CO/N=C(\C)c1ccc(C#N)cc1C(F)(F)F [compound 423] | 93% | 53% | 100% | 57% |  |  |  | 
13 | CO/N=C(/C(=O)OC)c1cccc(C)c1CO/N=C(\C)c1ccc(OC)cc1OC(F)(F)F [compound 373] |  |  |  |  | 100% | 38% | 77% | 27%
14 | CNC(=O)/C(=N/OC)c1cccc(C)c1CO/N=C(\C)c1cccc(F)c1C(F)(F)F [compound 326] |  |  |  |  | 30% | 1% | 25% | 0%
15 | CNC(=O)/C(=N/OC)c1cccc(C)c1CO/N=C(\C)c1c(F)cc(Br)cc1OC(F)(F)F [compound 355] |  |  |  |  | 48% | 4% | 34% | 7%
16 | CNC(=O)/C(=N/OC)c1cccc(C)c1CO/N=C(\C)c1cccc(C2CC2)c1 [compound 299] |  |  |  |  | 53% | 22% | 53% | 13%
17 | CO/N=C(/C(=O)OC)c1cccc(C)c1CO/N=C(\C)c1cccc(C2CC2)c1 [compound 297] |  |  |  |  | 87% | 37% | 90% | 37%
